In ChEMBL document CHEMBL1201861, “Genomics of Drug Sensitity in Cancer screening data, Wellcome Trust Sanger Institute”:
pIC50: −log10 of the molar value.

Key:
Experiment in all cases: cells
[1] = system: HEL; type: functional, cell-based, Homo sapiens; details: Homo sapiens, HEL;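 further: growth inhibition of HEL cells, read out with a cell viability assay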
Description: SANGER: Inhibition of human HEL cell growth in a cell viability assay.

[2] = system: HL-60; type: functional, cell-based; details: Homo sapiens;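 further: growth inhibition of human HL-60 cells, read out with a cell viability assay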
Description: SANGER: Inhibition of human HL-60 cell growth in a cell viability assay.

[3] = system: SK-MEL-2; type: functional, cell-based, Homo sapiens; details: Homo sapiens, SK-MEL-2;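 further: growth inhibition of human SK-MEL-2 cells measured with a cell viability assay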
Description: SANGER: Inhibition of human SK-MEL-2 cell growth in a cell viability assay.

[4] = system: GOTO; type: functional, cell-based, Homo sapiens; details: Homo sapiens, GOTO;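 further: growth inhibition of GOTO cells, read out by a cell viability assay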
Description: SANGER: Inhibition of human GOTO cell growth in a cell viability assay.

[5] = system: SW982; type: functional, cell-based; details: Homo sapiens;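 further: growth inhibition of SW982 cells, read out with a cell viability assay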
Description: SANGER: Inhibition of human SW982 cell growth in a cell viability assay.

[6] = system: TE-11; type: functional, cell-based, Homo sapiens; details: Homo sapiens, TE-11;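 further: growth inhibition of human TE-11 cells, read out by a cell viability assay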
Description: SANGER: Inhibition of human TE-11 cell growth in a cell viability assay.

[7] = system: HOS; type: functional, cell-based, Homo sapiens; details: Homo sapiens, HOS;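 further: growth inhibition of human HOS cells, read out with a cell viability assay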
Description: SANGER: Inhibition of human HOS cell growth in a cell viability assay.

[8] = system: T47D; type: functional, cell-based, Homo sapiens; details: Homo sapiens, T47D;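 further: growth inhibition of human T47D cells, measured with a cell viability assay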
Description: SANGER: Inhibition of human T47D cell growth in a cell viability assay.

[9] = system: GR-ST; type: functional, cell-based; details: Homo sapiens
Description: SANGER: Inhibition of human GR-ST cell growth in a cell viability assay.

[10] = system: GB-1; type: functional, cell-based, Homo sapiens; details: Homo sapiens, GB-1;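 further: growth of GB-1 cells judged by a viability assay, IC50 marks the concentration inhibiting growth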
Description: SANGER: Inhibition of human GB-1 cell growth in a cell viability assay.

[11] = system: NCI-H2052; type: functional, cell-based, Homo sapiens; details: Homo sapiens, NCI-H2052;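 further: growth inhibition of NCI-H2052 cells, read out with a cell viability assay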
Description: SANGER: Inhibition of human NCI-H2052 cell growth in a cell viability assay.

[12] = system: HCT-116; type: functional, cell-based, Homo sapiens; details: Homo sapiens, HCT-116
Description: SANGER: Inhibition of human HCT-116 cell growth in a cell viability assay.

[13] = system: NCI-H720; type: functional, cell-based; details: Homo sapiens;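 further: growth inhibition of human NCI-H720 cells determined by a cell viability assay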
Description: SANGER: Inhibition of human NCI-H720 cell growth in a cell viability assay.

[14] = system: NCI-H1648; type: functional, cell-based, Homo sapiens; details: Homo sapiens, NCI-H1648;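 further: cell viability assay measuring inhibition of NCI-H1648 cell growth, from the Sanger screening data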
Description: SANGER: Inhibition of human NCI-H1648 cell growth in a cell viability assay.

[15] = system: T-24; type: functional, cell-based, Homo sapiens; details: Homo sapiens, T-24;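 further: growth inhibition of T-24 cells, read out with a cell viability assay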
Description: SANGER: Inhibition of human T-24 cell growth in a cell viability assay.

[16] = system: SK-HEP1; type: functional, cell-based, Homo sapiens, SK-HEP-1; details: Homo sapiens, SK-HEP1;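 further: cell viability readout used to quantify reduction in proliferation of human SK-HEP-1 cells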
Description: SANGER: Inhibition of human SK-HEP-1 cell growth in a cell viability assay.

[17] = system: QIMR-WIL; type: functional, cell-based; details: Homo sapiens;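 further: growth inhibition of QIMR-WIL cells, read out with a cell viability assay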
Description: SANGER: Inhibition of human QIMR-WIL cell growth in a cell viability assay.

[18] = system: NCI-H441; type: functional, cell-based; details: Homo sapiens;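 further: growth inhibition of NCI-H441 cells, read out with a cell viability assay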
Description: SANGER: Inhibition of human NCI-H441 cell growth in a cell viability assay.

[19] = system: Calu-3; type: functional, cell-based, Homo sapiens; details: Homo sapiens, Calu-3;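 further: growth inhibition of human Calu-3 cells, determined with a cell viability assay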
Description: SANGER: Inhibition of human Calu-3 cell growth in a cell viability assay.

[20] = system: NCI-H2122; type: functional, cell-based, Homo sapiens; details: Homo sapiens, NCI-H2122;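 further: growth inhibition of the cells, read out with a cell viability assay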
Description: SANGER: Inhibition of human NCI-H2122 cell growth in a cell viability assay.

[21] = system: SNU-5; type: functional, cell-based; details: Homo sapiens;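 further: cell viability readout used to measure growth inhibition in human NCI-SNU-5 cells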
Description: SANGER: Inhibition of human NCI-SNU-5 cell growth in a cell viability assay.

[22] = system: NCI-H1792; type: functional, cell-based, Homo sapiens; details: Homo sapiens, NCI-H1792;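 further: growth inhibition of human NCI-H1792 cells, read out as cell viability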
Description: SANGER: Inhibition of human NCI-H1792 cell growth in a cell viability assay.

[23] = system: KP-4; type: functional, cell-based, Homo sapiens; details: Homo sapiens, KP-4; read-out: IC50;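 further: human KP-4 cells, with growth inhibition read out through a cell viability assay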
Description: SANGER: Inhibition of human KP-4 cell growth in a cell viability assay.

[24] = system: CTB-1; type: functional, cell-based; details: Homo sapiens
Description: SANGER: Inhibition of human CTB-1 cell growth in a cell viability assay.

[25] = system: SH-4; type: functional, cell-based, Homo sapiens; details: Homo sapiens, SH-4;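 further: growth inhibition of SH-4 cells, read out with a cell viability assay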
Description: SANGER: Inhibition of human SH-4 cell growth in a cell viability assay.

[26] = system: NB6; type: functional, cell-based, Homo sapiens; details: Homo sapiens, NB6;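 further: growth inhibition of NB6 cells, read out by a cell viability assay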
Description: SANGER: Inhibition of human NB6 cell growth in a cell viability assay.

[27] = system: HOP-92; type: functional, cell-based, Homo sapiens; details: Homo sapiens, HOP-92;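 further: cell viability readout, with IC50 reflecting inhibition of HOP-92 cell growth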
Description: SANGER: Inhibition of human HOP-92 cell growth in a cell viability assay.

[28] = system: ESS-1; type: functional, cell-based, Homo sapiens; details: Homo sapiens, ESS-1;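 further: growth inhibition of human ESS-1 cells, read out by a cell viability assay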
Description: SANGER: Inhibition of human ESS-1 cell growth in a cell viability assay.

[29] = system: MKN-1; type: functional, cell-based, Homo sapiens; details: Homo sapiens, MKN-1;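 further: growth inhibition of human MKN1 cells, read out by a cell viability measurement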
Description: SANGER: Inhibition of human MKN1 cell growth in a cell viability assay.

[30] = system: MKN-7; type: functional, cell-based, Homo sapiens; details: Homo sapiens, MKN-7;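 further: growth inhibition of MKN-7 cells, read out with a cell viability assay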
Description: SANGER: Inhibition of human MKN7 cell growth in a cell viability assay.

[31] = system: NB12; type: functional, cell-based, Homo sapiens; details: Homo sapiens, NB12;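 further: growth inhibition of human NB12 cells, read out by a cell viability assay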
Description: SANGER: Inhibition of human NB12 cell growth in a cell viability assay.

[32] = system: KINGS-1; type: functional, cell-based, Homo sapiens; details: Homo sapiens, KINGS-1;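 further: cell viability assay measuring suppression of KINGS-1 cell growth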
Description: SANGER: Inhibition of human KINGS-1 cell growth in a cell viability assay.

[33] = system: no-11; type: functional, cell-based, Homo sapiens; details: Homo sapiens;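 further: growth inhibition of human NO-11 cells, read out with a cell viability assay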
Description: SANGER: Inhibition of human no-11 cell growth in a cell viability assay.

[34] = system: SW1573; type: functional, cell-based, Homo sapiens; details: Homo sapiens, SW1573;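 further: growth inhibition of SW1573 cells, read out with a cell viability assay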
Description: SANGER: Inhibition of human SW1573 cell growth in a cell viability assay.

[35] = system: ES5; type: functional, cell-based, Homo sapiens; details: Homo sapiens, ES5;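 further: growth inhibition of human ES5 cells, read out by a cell viability assay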
Description: SANGER: Inhibition of human ES5 cell growth in a cell viability assay.

[36] = system: TK-10; type: functional, cell-based, Homo sapiens; details: Homo sapiens, TK-10;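 further: growth inhibition of TK-10 cells, read out in a cell viability assay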
Description: SANGER: Inhibition of human TK10 cell growth in a cell viability assay.

[37] = system: BCPAP; type: functional, cell-based, Homo sapiens; details: Homo sapiens, BCPAP;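 further: growth inhibition of BCPAP cells, read out in a cell viability assay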
Description: SANGER: Inhibition of human BCPAP cell growth in a cell viability assay.

[38] = system: SHP77; type: functional, cell-based, Homo sapiens, SHP-77; details: Homo sapiens, SHP77;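 further: growth inhibition of human SHP-77 cells measured by a cell viability assay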
Description: SANGER: Inhibition of human SHP-77 cell growth in a cell viability assay.

[39] = system: A388; type: functional, cell-based, Homo sapiens; details: Homo sapiens, A388;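 further: growth inhibition of human A388 cells, read out with a cell viability assay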
Description: SANGER: Inhibition of human A388 cell growth in a cell viability assay.

[40] = system: SK-PN-DW; type: functional, cell-based; details: Homo sapiens;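 further: growth inhibition measured with a viability assay on these cells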
Description: SANGER: Inhibition of human SK-PN-DW cell growth in a cell viability assay.

[41] = system: HMV-2 cell line; type: functional, cell-based, Homo sapiens; details: Homo sapiens, HMV-2;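 further: growth inhibition of HMV-II cells, read out with a cell viability assay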
Description: SANGER: Inhibition of human HMV-II cell growth in a cell viability assay.

[42] = system: NCI-H1155; type: functional, cell-based; details: Homo sapiens;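 further: cell growth inhibition measured by a viability assay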
Description: SANGER: Inhibition of human NCI-H1155 cell growth in a cell viability assay.

[43] = system: NCI-H2228; type: functional, cell-based, Homo sapiens; details: Homo sapiens, NCI-H2228;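 further: growth inhibition of human NCI-H2228 cells, read out by a cell viability assay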
Description: SANGER: Inhibition of human NCI-H2228 cell growth in a cell viability assay.

[44] = system: HCC1954; type: functional, cell-based, Homo sapiens; details: Homo sapiens, HCC1954;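 further: growth inhibition of human HCC1954 cells, read out with a cell viability assay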
Description: SANGER: Inhibition of human HCC1954 cell growth in a cell viability assay.

[45] = system: ES7; type: functional, cell-based, Homo sapiens; details: Homo sapiens, ES7;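 further: growth inhibition of cultured human ES7 cells, read out as cell viability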
Description: SANGER: Inhibition of human ES7 cell growth in a cell viability assay.

[46] = system: COLO-792; type: functional, cell-based, Homo sapiens; details: Homo sapiens, COLO-792
Description: SANGER: Inhibition of human COLO-792 cell growth in a cell viability assay.

[47] = system: KYSE-270; type: functional, cell-based, Homo sapiens; details: Homo sapiens, KYSE-270;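 further: cell growth inhibition measured with a viability assay in the human KYSE-270 line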
Description: SANGER: Inhibition of human KYSE-270 cell growth in a cell viability assay.

[48] = system: NCI-H1755; type: functional, cell-based, Homo sapiens; details: Homo sapiens, NCI-H1755;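 further: cell viability readout used to measure growth inhibition of NCI-H1755 cells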
Description: SANGER: Inhibition of human NCI-H1755 cell growth in a cell viability assay.

[49] = system: S-117; type: functional, cell-based, Homo sapiens; details: Homo sapiens, S-117
Description: SANGER: Inhibition of human S-117 cell growth in a cell viability assay.

[50] = system: LU-139; type: functional, cell-based; details: Homo sapiens
Description: SANGER: Inhibition of human LU-139 cell growth in a cell viability assay.

[51] = system: HCE-4; type: functional, cell-based, Homo sapiens; details: Homo sapiens, HCE-4;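 further: cell viability assay measuring inhibition of growth in the human HCE-4 cell line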
Description: SANGER: Inhibition of human HCE-4 cell growth in a cell viability assay.

[52] = system: ACN; type: functional, cell-based, Homo sapiens; details: Homo sapiens, ACN;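 further: growth inhibition of the human ACN cell line, read out via cell viability testing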
Description: SANGER: Inhibition of human ACN cell growth in a cell viability assay.

## C[C@]1(O)C[C@@H](c2nc(-c3ccc4ccc(-c5ccccc5)nc4c3)c3c(N)nccn32)C1 [LINSITINIB]
[1]
  pIC50: < 5.59
[2]
  pIC50: 5.78
[3]
  pIC50: < 5.59
[4]
  pIC50: < 5.59
[5]
  pIC50: < 5.59
[6]
  pIC50: 7.11
[7]
  pIC50: < 5.59
[8]
  pIC50: < 5.59
[9]
  pIC50: < 5.59
[10]
  pIC50: < 5.59
[11]
  pIC50: < 5.59
[12]
  pIC50: < 5.59
[13]
  pIC50: < 5.59
[14]
  pIC50: < 5.59
[15]
  pIC50: < 5.59
[16]
  pIC50: < 5.59
[17]
  pIC50: < 5.59
[18]
  pIC50: < 5.59
[19]
  pIC50: < 5.59
[20]
  pIC50: 6.63
[21]
  pIC50: < 5.59
[22]
  pIC50: < 5.59
[23]
  pIC50: < 5.59
[24]
  pIC50: < 5.59
[25]
  pIC50: < 5.59
[26]
  pIC50: < 5.59
[27]
  pIC50: < 5.59
[28]
  pIC50: < 5.59
[29]
  pIC50: < 5.59
[30]
  pIC50: < 5.59
[31]
  pIC50: < 5.59
[32]
  pIC50: < 5.59
[33]
  pIC50: < 5.59
[34]
  pIC50: < 5.59
[35]
  pIC50: < 5.59
[36]
  pIC50: < 5.59
[37]
  pIC50: < 5.59
[38]
  pIC50: < 5.59
[39]
  pIC50: < 5.59
[40]
  pIC50: 5.72
[41]
  pIC50: 7.05
[42]
  pIC50: < 5.59
[43]
  pIC50: < 5.59
[44]
  pIC50: < 5.59
[45]
  pIC50: < 5.59
[46]
  pIC50: < 5.59
[47]
  pIC50: < 5.59
[48]
  pIC50: < 5.59
[49]
  pIC50: < 5.59
[50]
  pIC50: < 5.59
[51]
  pIC50: < 5.59
[52]
  pIC50: < 5.59

## COc1ccc(C2=N[C@@H](c3ccc(Cl)cc3)[C@@H](c3ccc(Cl)cc3)N2C(=O)N2CCNC(=O)C2)c(OC(C)C)c1 [NUTLIN-3]
[1]
  pIC50: < 5.10
[2]
  pIC50: < 5.10
[3]
  pIC50: < 5.10
[4]
  pIC50: 5.42
[5]
  pIC50: 5.45
[6]
  pIC50: < 5.10
[7]
  pIC50: < 5.10
[8]
  pIC50: < 5.10
[9]
  pIC50: < 5.10
[10]
  pIC50: < 5.10
[11]
  pIC50: < 5.10
[12]
  pIC50: 5.48
[13]
  pIC50: < 5.10
[14]
  pIC50: < 5.10
[15]
  pIC50: < 5.10
[16]
  pIC50: 5.43
[17]
  pIC50: 5.79
[18]
  pIC50: < 5.10
[19]
  pIC50: < 5.10
[20]
  pIC50: 5.18
[21]
  pIC50: < 5.10
[22]
  pIC50: < 5.10
[23]
  pIC50: < 5.10
[24]
  pIC50: 5.69
[25]
  pIC50: < 5.10
[26]
  pIC50: < 5.10
[27]
  pIC50: < 5.10
[28]
  pIC50: < 5.10
[29]
  pIC50: < 5.10
[30]
  pIC50: < 5.10
[31]
  pIC50: < 5.10
[32]
  pIC50: < 5.10
[33]
  pIC50: < 5.10
[34]
  pIC50: < 5.10
[35]
  pIC50: < 5.10
[36]
  pIC50: < 5.10
[37]
  pIC50: < 5.10
[38]
  pIC50: < 5.10
[39]
  pIC50: < 5.10
[40]
  pIC50: < 5.10
[41]
  pIC50: < 5.10
[42]
  pIC50: < 5.10
[43]
  pIC50: < 5.10
[44]
  pIC50: < 5.10
[45]
  pIC50: < 5.10
[46]
  pIC50: < 5.10
[47]
  pIC50: < 5.10
[48]
  pIC50: < 5.10
[49]
  pIC50: < 5.10
[50]
  pIC50: < 5.10
[51]
  pIC50: < 5.10
[52]
  pIC50: < 5.10

## O=C(c1cc(Cc2n[nH]c(=O)c3ccccc23)ccc1F)N1CCN(C(=O)C2CC2)CC1 [OLAPARIB]
[1]
  pIC50: < 5.30
[2]
  pIC50: < 5.30
[3]
  pIC50: < 5.30
[4]
  pIC50: < 5.30
[5]
  pIC50: < 5.30
[6]
  pIC50: < 5.30
[7]
  pIC50: < 5.30
[8]
  pIC50: < 5.30
[9]
  pIC50: < 5.30
[10]
  pIC50: < 5.30
[11]
  pIC50: < 5.30
[12]
  pIC50: < 5.30
[13]
  pIC50: 5.66
[14]
  pIC50: < 5.30
[15]
  pIC50: < 5.30
[16]
  pIC50: < 5.30
[17]
  pIC50: < 5.30
[18]
  pIC50: < 5.30
[19]
  pIC50: < 5.30
[20]
  pIC50: < 5.30
[21]
  pIC50: < 5.30
[22]
  pIC50: < 5.30
[23]
  pIC50: < 5.30
[24]
  pIC50: < 5.30
[25]
  pIC50: < 5.30
[26]
  pIC50: < 5.30
[27]
  pIC50: < 5.30
[28]
  pIC50: < 5.30
[29]
  pIC50: < 5.30
[30]
  pIC50: < 5.30
[31]
  pIC50: < 5.30
[32]
  pIC50: < 5.30
[33]
  pIC50: < 5.30
[34]
  pIC50: < 5.30
[35]
  pIC50: 5.54
[36]
  pIC50: < 5.30
[37]
  pIC50: < 5.30
[38]
  pIC50: < 5.30
[39]
  pIC50: < 5.30
[40]
  pIC50: < 5.30
[41]
  pIC50: < 5.30
[42]
  pIC50: < 5.30
[43]
  pIC50: < 5.30
[44]
  pIC50: < 5.30
[45]
  pIC50: < 5.30
[46]
  pIC50: < 5.30
[47]
  pIC50: < 5.30
[48]
  pIC50: < 5.30
[49]
  pIC50: < 5.30
[50]
  pIC50: 5.32
[51]
  pIC50: < 5.30
[52]
  pIC50: < 5.30

## C=CCc1cccc(/C=N/NC(=O)CN2CCN(Cc3ccccc3)CC2)c1O [PAC-1]
[1]
  pIC50: < 5.59
[2]
  pIC50: < 5.59
[3]
  pIC50: < 5.59
[4]
  pIC50: < 5.59
[5]
  pIC50: < 5.59
[6]
  pIC50: < 5.59
[7]
  pIC50: < 5.59
[8]
  pIC50: < 5.59
[9]
  pIC50: < 5.59
[10]
  pIC50: < 5.59
[11]
  pIC50: < 5.59
[12]
  pIC50: < 5.59
[13]
  pIC50: < 5.59
[14]
  pIC50: < 5.59
[15]
  pIC50: < 5.59
[16]
  pIC50: < 5.59
[17]
  pIC50: < 5.59
[18]
  pIC50: < 5.59
[19]
  pIC50: < 5.59
[20]
  pIC50: < 5.59
[21]
  pIC50: < 5.59
[22]
  pIC50: < 5.59
[23]
  pIC50: < 5.59
[24]
  pIC50: 5.84
[25]
  pIC50: < 5.59
[26]
  pIC50: < 5.59
[27]
  pIC50: < 5.59
[28]
  pIC50: < 5.59
[29]
  pIC50: < 5.59
[30]
  pIC50: < 5.59
[31]
  pIC50: < 5.59
[32]
  pIC50: < 5.59
[33]
  pIC50: < 5.59
[34]
  pIC50: < 5.59
[35]
  pIC50: < 5.59
[36]
  pIC50: < 5.59
[37]
  pIC50: < 5.59
[38]
  pIC50: < 5.59
[39]
  pIC50: < 5.59
[40]
  pIC50: < 5.59
[41]
  pIC50: < 5.59
[42]
  pIC50: < 5.59
[43]
  pIC50: < 5.59
[44]
  pIC50: < 5.59
[45]
  pIC50: < 5.59
[46]
  pIC50: < 5.59
[47]
  pIC50: 5.61
[48]
  pIC50: < 5.59
[49]
  pIC50: < 5.59
[50]
  pIC50: < 5.59
[51]
  pIC50: < 5.59
[52]
  pIC50: 5.75
